The numbers were not newly measured in patent US20140366219A1, “Increasing Soybean Defense Against Pests” (priority 2011, published 2014), which cites them from elsewhere.

Holding throughout (conditions): esterase activity toward MeSA; cited from earlier work
The target in one series is T1, NtSABP2 (Nicotiana tabacum, UniProt Q6RYA0).
T1 sequence (Q6RYA0 1-260): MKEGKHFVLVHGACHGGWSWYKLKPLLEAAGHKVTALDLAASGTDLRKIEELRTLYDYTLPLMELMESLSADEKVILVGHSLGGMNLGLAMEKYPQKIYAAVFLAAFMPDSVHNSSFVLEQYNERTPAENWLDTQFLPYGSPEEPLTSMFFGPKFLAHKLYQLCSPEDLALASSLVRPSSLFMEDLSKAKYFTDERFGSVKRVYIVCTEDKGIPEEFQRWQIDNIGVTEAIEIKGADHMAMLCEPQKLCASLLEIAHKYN

The next series has as its system PtSABP2-2.
The target in a further series is T2, AtMES1 (Arabidopsis thaliana, UniProt Q8S8S9).
T2 sequence (Q8S8S9 1-263): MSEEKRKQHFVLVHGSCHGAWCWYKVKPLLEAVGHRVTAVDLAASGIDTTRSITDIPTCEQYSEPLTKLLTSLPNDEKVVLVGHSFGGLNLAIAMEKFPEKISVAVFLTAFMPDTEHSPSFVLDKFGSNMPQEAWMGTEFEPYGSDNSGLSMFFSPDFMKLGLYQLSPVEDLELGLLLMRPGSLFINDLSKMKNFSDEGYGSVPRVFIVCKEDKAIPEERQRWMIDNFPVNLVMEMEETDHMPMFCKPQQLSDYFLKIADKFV

Another series addresses T3, AtMES9 (Arabidopsis thaliana, UniProt O23171).
T3 sequence (O23171 1-256): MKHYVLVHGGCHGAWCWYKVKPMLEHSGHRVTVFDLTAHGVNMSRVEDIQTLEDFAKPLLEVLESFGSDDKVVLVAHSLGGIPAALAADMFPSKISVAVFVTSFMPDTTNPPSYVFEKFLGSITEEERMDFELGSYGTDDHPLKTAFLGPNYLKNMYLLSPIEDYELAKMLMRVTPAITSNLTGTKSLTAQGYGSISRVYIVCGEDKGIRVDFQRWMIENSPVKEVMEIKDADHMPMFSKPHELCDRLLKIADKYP

The next series has as its system PtSABP2-1.
A further series concerns StMES1.

As for `COC(=O)c1ccccc1O` [MeSA, methyl salicylate], the Km on NtSABP2 was 8.6 µM; in the series on PtSABP2-2, 24.6 µM; at AtMES1 it was 57.3 µM; at AtMES9 it was 147 µM; in the series on PtSABP2-1, 68.2 µM; in the series on StMES1, 57.9 µM.
